According to ChEMBL document CHEMBL5390285, “Isolation and In Vitro and In Vivo Activity of Secondary Metabolites from Clerodendrum polycephalum Baker against Plasmodium Malaria Parasites” (J Nat Prod, 2023):

Tests used:
[1] = tested on: Plasmodium falciparum; experiment: Antiplasmodial activity against synchronized ring stage Plasmodium falciparum 3D7 infected in human erythrocytes assessed as inhibition of parasite proliferation preincubated for 48 hrs followed by [3H]-hypoxanthine incorporation and measured after 24 hrs by microbeta liquid scintillation counter analysis; assay type: functional, organism-based
[2] = tested on: Plasmodium berghei; experiment: In vivo antimalarial activity against Plasmodium berghei NK65 infected in Swiss albino mouse assessed as chemosuppression of parasite in erythrocytes at 10 mg/kg, po administered once daily for 4 days and measured on day 5 post-infection by Giemsa staining based microscopic analysis relative to control; assay type: functional; settings: time 4 day
[3] = tested on: Plasmodium berghei; experiment: In vivo antimalarial activity against Plasmodium berghei NK65 infected in Swiss albino mouse assessed as reduction in parasitemia in erythrocytes at 10 mg/kg, po administered once daily for 4 days and measured on day 5 post-infection by Giemsa staining based microscopic analysis relative to control; assay type: functional; parameters: scale not given: the % may be the effect or the level left; settings: time 4 day
[4] = Cytotoxicity against human NFF cells assessed as growth inhibition incubated for 72 hrs by SRB assay; assay type: toxicity, cell-based
[5] = tested on: Plasmodium berghei; experiment: In vivo antimalarial activity against Plasmodium berghei NK65 infected in Swiss albino mouse assessed as reduction in parasitemia in erythrocytes at 20 mg/kg, po administered once daily for 4 days and measured on day 5 post-infection by Giemsa staining based microscopic analysis relative to control; assay type: functional; parameters: scale not given: the % may be the effect or the level left; settings: time 4 day
[6] = Selectivity index, ratio of IC50 for cytotoxicity against human NFF cells to the IC50 for antiplasmodial activity against Plasmodium falciparum 3D7 infected in human erythrocytes; assay type: toxicity, cell-based; settings: read-out: Ratio IC50
[7] = tested on: Plasmodium berghei; experiment: In vivo antimalarial activity against Plasmodium berghei NK65 infected in Swiss albino mouse assessed as chemosuppression of parasite in erythrocytes at 20 mg/kg, po once daily for 4 days and measured on day 5 post-infection by Giemsa staining based microscopic analysis relative to control; assay type: functional; settings: time 4 day

Work on `CC(=O)OC[C@@]12[C@@H](OC(C)=O)C[C@@H](C)[C@](C)(CCC3CCOC3=O)[C@H]1CCC[C@@H]2C=O` (some centres not stated) yielded an IC50 [1] of 27.8 µM.

With `CC(=O)OC[C@@]12[C@@H](OC(C)=O)C[C@@H](C)[C@](C)(CCC3CCOC3=O)[C@H]1CCC[C@@]21CO1` (some centres not stated) the IC50 [1] was > 50 µM.

With `COc1ccc(-c2cc(=O)c3c(O)cc(O)cc3o2)cc1` [ACACETIN] the IC50 [1] was < 40 µM.

In the case of `CC(=O)OC[C@@]12[C@@H](OC(C)=O)C[C@@H](C)[C@](C)(CCC3CCOC3=O)[C@H]1CCC[C@@]2(O)CCl` (some centres not stated), the IC50 [1] is reported as > 50 µM.

In the case of `CC1(C)CCC[C@]2(C)c3c(c(O)c4cc(CO)oc4c3O)C(=O)C[C@@H]12`, the IC50 [1] is reported as > 40 µM.

In the case of `CC1(C)CCC[C@@]2(C)C1=C(O)C(=O)c1c2c(O)c2oc(CO)cc2c1O`, the IC50 [1] is reported as 30 µM.

With `CC1(C)C[C@H](O)C[C@@]2(C)OC(=O)C=C12` [LOLIOLIDE] the IC50 [1] was > 50 µM.

`CCN(CC)CCCC(C)Nc1ccnc2cc(Cl)ccc12` (configuration not stated) [CHLOROQUINE] showed an Activity [2] of 85%, an Activity [3] of 1.78% and an IC50 at 72 h [4] of 31.7 µM.

In the case of `C=CC1=C(C)C2=NC/1=C\C1=NC(=C\C3=C(C)C4=C(O)[C@H](C(=O)OC)/C(=C5/N/C(=C\2)[C@@H](C)[C@@H]5CCC(=O)OC)C4=N3)/C(CC)=C1C`, the IC50 [1] is reported as 4.49 µM, the Activity [2] is reported as 79% and the Activity [5] is reported as 1.5%. The Activity [3] was 2.52%, the IC50 at 72 h [4] was > 50 µM and the selectivity ratio [6] was > 11. The Activity [7] was 87%.
